{"source": "patent US20240100062A1", "about": "“Methods of Treatment With an Iboga Alkaloid” (priority 2022, published 2024)", "key": {"[1]": {"tested_on": "special operations veterans", "assay": "Resting-state fMRI functional connectivity (Example 2)", "assay_type": "in vivo, human", "details": "within a few days after treatment; persisted to one-month post treatment; 5000 pairs tested", "description": "The human brain is a series of well-organized and optimized series of efficient networks. Disease states can be characterized as abnormalities or inefficiencies in the networks and/or the global organization. Resting-state functional connectivity is one method to characterize disease states and effects of interventions. The functional connectivity networks evaluated in a region of interest in the brain included those identified in Table 2-1 of Example 2.\nThe subjects were asked to clear their mind of any particular thoughts in order to capture the brain at rest or in its ‘default’ state. An a priori region of interest was determined for analysis and 5000 functional connectivity pairs were tested. The underlying alteration in brain patterns (connectivity) due to an intervention was evaluated."}, "BDNF and GDNF": {"tested_on": "BDNF and GDNF", "details": "cited from earlier work"}, "[2]": {"tested_on": "special operations veterans", "assay": "Safety monitoring (adverse events, QTc by ECG), Example 1 study", "assay_type": "in vivo, human", "experimental": "With subjects in the fasting state, an intravenous infusion of 1 gram of magnesium sulfate was administered 1-2 hours prior to treatment. […] Medical staff (MD, RN, or EMT) were onsite at a ratio of at least 1 staff per 2 patients throughout treatment for monitoring and management, but no specific coaching or psychological support was provided during treatment."}, "[3]": {"tested_on": "special operations veterans", "assay": "Structural T1w MRI, FreeSurfer regional volume and cortical thickness", "assay_type": "in vivo, human", "experimental": "Structural imaging of the brain was also conducted on some of the subjects of Example 1. Gray matter constitutes about 40% of the brain and white matter constitutes about 60% of the brain. Gray matter contains most of the brain's neuronal cell nodes, it is fully developed once a person reaches their 20's and interprets sensor information from various parts of the body. White matter is made up of bundles which connect various gray matter areas, it develops throughout the 20's and peaks in middle age, Typical metrics analyzed in anatomical (T1-weighted, “T1w”) imaging include volume and/or shape of nuclei (e.g. caudate), volume and/or shape of ventricles of the brain, and cortical thickness (mm). These metrics can be used to study normal and abnormal neuroanatomy and are primarily used to quantify gray matter. A tool called FreeSurfer was applied to images for a T1w structural analysis (volume, cortical thickness) to adjust for bias, remove non-brain matter, segments by tissue, parcels the brain into standardized regions, and provides measurements of those regions. FreeSurfer measurements of whole brain volume, volume by tissue (gray, white, CSF), estimated intracranial volume (ICV), subcortical gray matter volume, cortical volume by region were done. […] In particular, analysis was done to determine if there was any loss in gray matter volume or cortical thickness, whether there was a loss in white matter volume or an increase in presence of white matter hypotensities.\nThe fMRI images were also inspected to determine the difference in volume in regional areas of the brain from baseline to one month after treatment. FIG. 8A is a bar graph showing the effect size of a change in volume in 47 brain regions indicated along the x-axis. […] The fMRI images were also inspected for whole brain thickness at baseline and one month after treatment. […] FIG. 8B is a bar graph showing the effect size of a cortical thickness change for the brain regions indicated along the x-axis, from baseline to one month after treatment. […] The right and left parahippocampal gyrus are involved in visuospatial processing, including scene perception, navigation, and emotional contextualization. The left orbitofrontal gyrus is involved in impulse control and reward valuation. The left insular cortex is associated with both the affective-perceptual and cognitive-evaluative forms of empathy, as well as awareness of hunger, pain and fatigue. The left entorhinal cortex is a widespread network hub for memory, navigation, and perception of time."}, "[4]": {"tested_on": "special operations veterans", "assay": "Clinician rated psychiatric assessments (PTSD, depression, anxiety) overall, Example 1 study", "assay_type": "in vivo, human", "details": "following treatment; sustained at one-month follow-up", "experimental": "The safety and efficacy of ibogaine treatment in combination with a cardioprotective agent was evaluated in subjects with a history of TBI. At baseline, study participants were experiencing clinically significant levels of disability, PTSD, depression, and anxiety. […] Indeed, disability measures continued to improve, and psychiatric symptom remission and response rates one-month post-treatment remained high.\nClinician administered scales included CAPS-5 (Clinician-administered PTSD Scale for DSM-5), which is a gold standard assessment of PTSD symptom severity; MADRS (Montgomery-Asberg Depression Rating Scale), a measure for depressive symptom severity; and Hamilton-Anxiety Rating Scale (HAM-A) (Shear, M. K. et al., Depress. Anxiety 13, 166-178 (2001)) a measure for anxiety symptom severity; SCID-5 (Structured Clinical Interview for DSM-5) Overview for a historical and environmental context of symptom presentation; MINI DSM-5 (Mini International Neuropsychiatric Interview from DSM-5) for a structured psychodiagnostics assessment; BAT-L (Boston Assessment of TBI—Lifetime) for a lifetime history of TBI and blast exposure; and Ohio State University TBI Identification Method (Short Form) for a lifetime history of TBI. MADRS testing provides an indication of depressive symptoms, CAPS-5 provides an indication of PTSD and SIGH-A provides an indication of anxiety. […]"}, "[5]": {"tested_on": "special operations veterans", "assay": "Predicted brain age from MRI (brain age model)", "assay_type": "in vivo, human", "description": "A predictive model of normal aging defined using machine learning in healthy individuals, based on magnetic resonance imaging-derived estimates of gray matter and white matter (Id.) was applied to the MRI images from the subjects enrolled in the study of Example 1. […] There was a significant reversal of brain age from baseline to one month after treatment. The mean decrease in brain age was 1.3 years (corrected p=0.03).\nAt baseline, the brain age estimate for the 24 subjects was 40.89 years. […] The average decrease in brain age from baseline one month after treatment was 1.4 years."}, "[6]": {"tested_on": "special operations veterans", "assay": "Wechsler Adult Intelligence Scale (WAIS-IV) PSI and WMI, Example 1 study", "assay_type": "in vivo, human"}, "[7]": {"tested_on": "N-methyl-D-aspartate, kappa and mu opioid, sigma-1 and -2, nicotinic acetylcholine, serotonin transporter, and dopamine transporter", "details": "cited from earlier work"}}, "note": "“Also recorded” adds a separate entry of the source."}
{"smiles": "CCC1CC2CC3c4[nH]c5ccc(OC)cc5c4CCN(C2)C13", "note": "(stereo not shown) [ibogaine, Ibogaine]", "values": [{"measurement": "Reorganization of functional connection pairs in the brain networks, number of pairs", "setting": "[1]", "value": 22}, {"measurement": "Transcription of neurotrophic factors including BDNF and GDNF", "setting": "BDNF and GDNF", "value": "increases the transcription of neurotrophic factors"}, {"measurement": "Participants treated for insomnia", "setting": "[2]; 1 participant, during oneirogenic effects", "value": 3, "unit": "%"}, {"measurement": "Participants treated for hypertension", "setting": "[2]; 2 participants, during oneirogenic effects", "value": 7, "unit": "%"}, {"measurement": "Participants treated for anxiety", "setting": "[2]; 3 participants, during oneirogenic effects", "value": 10, "unit": "%"}, {"measurement": "Participants treated for nausea", "setting": "[2]; 7 participants, during oneirogenic effects", "value": 23, "unit": "%"}, {"measurement": "Participants treated for headache", "setting": "[2]; 12 participants, during oneirogenic effects", "value": 40, "unit": "%"}, {"measurement": "Transient cerebellar signs such as mild ataxia and intention tremor", "setting": "[2]; 30 participants", "value": "All participants experienced transient cerebellar signs"}, {"measurement": "Unexpected or serious adverse events", "setting": "[2]; 30 participants, 12.1±1.2 mg/kg oral ibogaine with IV magnesium sulfate, 1.2 mg/kg", "value": "no unexpected or serious treatment-emergent side effects; also recorded: no unexpected or serious adverse events"}, {"measurement": "QTc prolongation", "setting": "[2]; continuous 5-lead ECG 12-16 hours after ibogaine", "value": "no instances of a concerning prolongation of QTc"}, {"measurement": "White matter hypointensities (corrected for cerebral white matter), baseline vs. one month post treatment", "setting": "[3]; 17 subjects, two-tailed p = 0.0789, left tailed p = 0.9606, right-tailed p = 0.0394", "value": "Two-tailed: no significant differences"}, {"measurement": "Subcortical Gray Matter volume, baseline vs. one month post treatment", "setting": "[3]; 17 subjects, two-tailed p = 0.0949, left tailed p = 0.0475, alpha = 0.05", "value": "Two-tailed: no significant differences"}, {"measurement": "Total Gray Matter volume, baseline vs. one month post treatment", "setting": "[3]; 17 subjects, two-tailed p = 0.4755, alpha = 0.05", "value": "Two-tailed: no significant differences"}, {"measurement": "Cortical Gray Matter volume, baseline vs. one month post treatment", "setting": "[3]; 17 subjects, two-tailed p = 0.4847, alpha = 0.05", "value": "Two-tailed: no significant differences"}, {"measurement": "Regional brain volume increases, baseline to one month after treatment", "setting": "[3]; 47 brain regions (FIG. 8A)", "value": "Increases in volume were observed in the cerebral white mater (left) and the left ventral DC"}, {"measurement": "Regional cortical thickness change", "setting": "[3]; baseline to one month after treatment (FIG. 8B)", "value": "Increases in cortical thickness one-month after treatment was observed in left entorhinal cortex, left-lateral-orbitofrontal pole, parahippocampal gyrus (bilaterally), left insular cortex, and right-pars triangularis (inferior frontal gyrus)"}, {"measurement": "Left hemisphere mean thickness", "setting": "[3]; one month after treatment vs baseline, two-tailed p=0.7146, alpha=0.05", "value": "no significant difference from baseline"}, {"measurement": "Right hemisphere mean thickness", "setting": "[3]; one month after treatment vs baseline, two-tailed, alpha=0.05", "value": "no significant difference from baseline"}, {"measurement": "Inspection of brain volume and thickness for damage", "setting": "[3]; treated subjects, one month after treatment", "value": "no apparent damage to the brain"}, {"measurement": "Cohen's D on clinician rated psychiatric assessments", "setting": "[4]", "value": "> 2"}, {"measurement": "Mean decrease in brain age", "setting": "[5]; baseline to one month after treatment, corrected p=0.03 (FIG. 9A)", "value": 1.3, "unit": "years"}, {"measurement": "Estimated brain age compared to accelerated intermittent theta burst stimulation (aiTBS)", "setting": "[5]; one-month post treatment (FIG. 9D)", "value": "provided a reducing in estimated brain age one-month post treatment compared to aiTBS"}, {"measurement": "Brain age contrast Estimate, Baseline & 1 wk. vs 1 mo.", "setting": "[5]; weights .5-.5-1, Sig 0.008, 95% 0.352 to 2.087", "value": 1.220, "unit": "years"}, {"measurement": "Working Memory (WMI, WAIS-IV), mean ± SD", "setting": "[6]; 1-wk post, baseline 55.1 ± 8.3, p(FDR) 0.034", "value": "57.0 ± 9.5", "unit": "T score"}, {"measurement": "Working Memory (WMI, WAIS-IV), D", "setting": "[6]; baseline vs 1-month post", "value": 0.31}, {"measurement": "Processing Speed (PSI, WAIS-IV), D", "setting": "[6]; baseline vs 1-wk post", "value": 0.97}, {"measurement": "Working Memory (WMI, WAIS-IV), D", "setting": "[6]; baseline vs 1-wk post", "value": 0.37}, {"measurement": "Affinity for neurotransmitter receptors", "setting": "[7]", "value": "moderate-to-weak affinity"}]}
